We go through two molecules from PMC7747594, “Protease-activated receptor-2 ligands reveal orthosteric and allosteric mechanisms of receptor inhibition” (Communications Biology, 2020).

The target of one test is T1, PAR2 (F2RL1) (Homo sapiens, UniProt P55085).
T1 sequence (P55085 26-397): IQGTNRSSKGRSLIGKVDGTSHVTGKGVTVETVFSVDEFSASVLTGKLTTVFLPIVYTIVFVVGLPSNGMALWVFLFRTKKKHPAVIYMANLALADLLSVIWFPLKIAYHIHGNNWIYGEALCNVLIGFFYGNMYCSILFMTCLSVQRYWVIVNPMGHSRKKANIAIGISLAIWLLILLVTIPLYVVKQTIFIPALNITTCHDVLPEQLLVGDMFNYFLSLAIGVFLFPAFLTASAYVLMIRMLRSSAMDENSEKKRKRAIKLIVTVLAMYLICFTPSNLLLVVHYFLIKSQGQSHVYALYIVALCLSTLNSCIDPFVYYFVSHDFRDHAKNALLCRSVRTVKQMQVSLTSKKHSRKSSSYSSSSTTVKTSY
Put plainly: β-arrestin recruitment, DiscoverX profiling service, PAR2. The format is cell-based. Particulars: for Max Response: in % (unit assumed).

A further test deals with T2, PAR4 (F2RL3) (Homo sapiens, UniProt Q96RI0).
T2 sequence (Q96RI0 18-385): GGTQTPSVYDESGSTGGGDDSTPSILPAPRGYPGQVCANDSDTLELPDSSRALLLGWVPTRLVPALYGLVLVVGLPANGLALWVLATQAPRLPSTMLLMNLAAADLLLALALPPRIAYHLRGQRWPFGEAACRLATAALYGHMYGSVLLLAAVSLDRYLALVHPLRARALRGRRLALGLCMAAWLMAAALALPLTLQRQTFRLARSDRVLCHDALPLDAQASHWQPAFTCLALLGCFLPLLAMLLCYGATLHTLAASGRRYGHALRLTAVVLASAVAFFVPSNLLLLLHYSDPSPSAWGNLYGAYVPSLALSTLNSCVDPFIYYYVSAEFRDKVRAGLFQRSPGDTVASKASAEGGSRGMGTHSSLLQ
Put plainly: β-arrestin recruitment, DiscoverX profiling service, PAR4. It counts as cell-based.

Test [1] has as its system PAR2 stabilised receptor (StaR). Put plainly: Surface plasmon resonance (SPR) binding, single-cycle kinetics. The procedure:
(§1) The SPR binding experiments were performed on a Biacore S200 optical biosensor unit (GE Healthcare) at 30 °C. Sensor chips Series S NTA (Research grade, GE Healthcare) were equilibrated at room temperature prior to use. The running buffer for protein tethering and subsequent ligand binding experiments was 50 mM HEPES, 250 mM NaCl, 0.1% (w/v) LMNG, 0.005% (w/v) CHS, 0.025% (w/v) CHAPS, pH 7.4, if not stated otherwise. The tethering of PAR2 was performed at a flow rate of 5 µl min^−1. The NTA surface was chosen to allow full control of the steric orientation of the tethered protein and was conditioned by a one-minute injection of a 350 mM EDTA solution (pH 8.3) followed by a one-minute injection of running buffer supplemented with 0.5 mM NiCl2. To allow for a covalent tethering after the initial capture step, the conditioned surface was activated for 7 min with 50 mM NHS and 200 mM EDC. This was immediately followed by an injection of PAR2 in running buffer at a concentration of 80–120 µg ml^−1 with a contact time of 5–10 min to achieve the desired densities of 8000–9000 RU. […] Reference surfaces were prepared accordingly, omitting the injection of protein over the activated reference surface. The subsequent binding experiments were all performed at a flow rate of 30 µl min^−1 and by employing the method of single-cycle kinetics. This approach involves the sequential injection of a compound concentration series without regeneration steps. A contact time of 60 s was selected, which was followed by a 30 min dissociation phase to allow for a proper estimation of the dissociation rate constant. Compounds were dissolved in DMSO to 10 mM and a digital dispenser HP D300 (Tecan) was used to set up the compound concentration series using 8 concentrations with a 2-fold dilution pattern. […] Prior to the analysis of compound binding, three running buffer blanks were injected to equilibrate the instrument. The data collection rate was set to 10 Hz and all experiments were repeated at least four times to allow for error estimations. Due to the low DMSO mismatch (maximum 0.1%) introduced by the compound addition, no solvent correction was required. To evaluate compound binding to the PAR-AZ8838 complex, the antagonist AZ8838 was supplemented into the running buffer at a concentration of 50 µM and the instrument was equilibrated for 1 h before performing the single-cycle kinetic study as described above. Similarly, binding of AZ2429 to the PAR-AZ3451 complex was investigated after addition of 1 µM AZ3451 to the running buffer followed by 1 h equilibrium period, while the addition of 10 µM AZ2429 to the running buffer was required to ensure >99% saturation for single-cycle kinetic study of AZ3451 binding to the PAR2-AZ2429 complex.
(§2) Prior to the fitting of the data, the reference-subtracted data was further analysed by subtracting a similar single-cycle kinetic experiment containing only buffer injections in order to correct for injection artefacts, systematic noise and instrument drift. This double-referenced data has been fitted using a simple 1:1 interaction model as described by Karlsson et al.[46] in order to extract kinetic and affinity data. All data were expressed as mean ± s.e.m. and further analysed using GraphPad Prism 8. Statistical differences were assessed using student’s t-tests (two-tailed) for data sets of two and one-way ANOVA for data sets of three. Significance was set at ^+p < 0.05, ^++p < 0.01, ^+++p < 0.001, ^++++p < 0.0001 compared to AZ3451, and *p < 0.05, **p < 0.01, ***p < 0.001, ****p < 0.0001 compared to AZ2429.

The target of test [2] is T3, PAR2 stabilised receptor (StaR) (Homo sapiens, UniProt P55085).
T3 sequence (P55085 55-377): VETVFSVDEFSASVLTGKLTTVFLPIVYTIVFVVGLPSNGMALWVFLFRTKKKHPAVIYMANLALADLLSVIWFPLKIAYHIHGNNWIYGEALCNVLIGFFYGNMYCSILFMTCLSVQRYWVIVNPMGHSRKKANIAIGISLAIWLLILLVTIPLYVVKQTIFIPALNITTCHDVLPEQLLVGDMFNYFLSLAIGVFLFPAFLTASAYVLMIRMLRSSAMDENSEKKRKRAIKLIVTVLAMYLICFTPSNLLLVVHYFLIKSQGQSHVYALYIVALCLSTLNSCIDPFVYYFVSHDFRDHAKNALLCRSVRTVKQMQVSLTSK
The test is described as above. The procedure: as §1, §2

Structures are written as SMILES.

With `CNC(=O)[C@H]1CC[C@@H](NC(=O)[C@H](CC2CCCCC2)NC(=O)c2cn(Cc3ccccc3)nn2)c2ccccc21` [AZ2429], on PAR2 (F2RL1) (Agonist format), the “Curve Bottom” value is listed as -2, the “Curve Top” value is recorded as 103.3, the Hill is on record as 1.29 and the “Max Response” value turned out to be 104.3. For the same molecule, the 50% effective concentration (EC50) on PAR2 (F2RL1) (Agonist format, read-out: RC50 (EC50)) came to 0.025 µM. At PAR2 (F2RL1) (Antagonist format), the “Max Response” value is 4.5. For the same molecule, at PAR2 (F2RL1) (Antagonist format, read-out: RC50 (IC50)), the IC50 was > 50 µM. At PAR4 (F2RL3) (Arrestin, Agonist format, F2RL3), this molecule had a Max Response of 3.8%. Besides, the EC50 at PAR4 (F2RL3) (Arrestin, Agonist format, F2RL3, read-out: RC50 (EC50)) was > 50 µM. At PAR4 (F2RL3) (Arrestin, Antagonist format, F2RL3), this molecule returned a Max Response of 2.3%. For the same molecule, the IC50 at PAR4 (F2RL3) (Arrestin, Antagonist format, F2RL3, read-out: RC50 (IC50)) was > 50 µM. In addition, on PAR4 (F2RL3) (DiscoverX profiling service), the “activity against PAR4 in β-arrestin-2 recruitment assay” value was “No AZ2429 activity was detected”. In test [1] (SPR), the “association kinetics slower than AZ3451” value is reported as “around 100 fold”, the “dissociation rate decreased relative to AZ3451” value came to 5 fold and the “weaker affinity than AZ3451” value came to 10 fold. In test [1] (apo-PAR2, 30 °C), the ka is 1.5 ± 0.1 × 10^4 (n = 4) M^−1 s^−1, the pKD is listed as 6.89 ± 0.03 (n = 4) and the residence time was 523 ± 50 (n = 4) s.

Regarding `C[C@@H](C1CCCCC1)n1c(-c2cc3c(cc2Br)OCO3)nc2cc(C(=O)Nc3ccc(C#N)cc3)ccc21` [AZ3451], the “reduction in affinity in presence of saturating AZ8838” value in test [2] (SPR) is 3 fold. Moreover, in test [2] (SPR, apo-PAR2), the residence time result was “about 2 min”. In test [2] (apo-PAR2, 30 °C), the ka is on record as 1.1 ± 0.6 × 10^6 (n = 4) M^−1 s^−1, the pKD was 7.96 ± 0.04 (n = 4) and the residence time is 116 ± 68 (n = 4) s.
